What was measured:
L929 cell line = test: Cytotoxicity MTS assay, L929 cell line; assay type: cell-based; conditions: for OD490 values, Mean / OD490 values, Well 1 / OD490 values, Well 2 / OD490 values, Well 3: L929 cell line, first assay
Method in brief: (§1)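 MTS antiproliferation; 1000 cells/well, 24 h pre-incubation; compound 0.5–100 µM final, 24 h exposure; vehicle 0.025% DMSO; monastrol positive control; MTS 2 h, 37 °C, 5% CO2; A490; IC50 by non-linear regression of % viability vs concentration; three independent duplicate runs.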

Hela cell line = test: Cytotoxicity MTS assay, Hela cell line; assay type: cell-based; conditions: for OD490 value, Mean / OD490 value, Well 1 / OD490 value, Well 2 / OD490 value, Well 3: Hela cell line, MTS;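 as to OD490 value, Mean: blank control wells received 0.025% DMSO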;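 as to OD490 value, Well 1: blank control wells received 0.025% DMSO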;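 as to OD490 value, Well 2: blank control wells received 0.025% DMSO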;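 as to OD490 value, Well 3: blank control wells received 0.025% DMSO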
Method in brief: as §1

CCOC(=O)c1[nH]c(C2NC(=O)NC(C)=C2C(=O)Nc2ccccc2OC)c(C(=O)OC)c1C (centres unmarked) [D3] was tested, and the “OD490 values, Mean” value (L929 cell line; 0.5μM) was 1.3020, the “OD490 values, Well 1” value (L929 cell line; 0.5μM) was 1.4715 and the “OD490 values, Well 2” value (L929 cell line; 0.5μM) was 1.2756. For the same compound, the “OD490 values, Well 3” value (L929 cell line; 0.5μM) was 1.1589, the “OD490 values, Mean” value (L929 cell line; 1μM) was 1.3230 and the “OD490 values, Well 1” value (L929 cell line; 1μM) was 1.4997. The “OD490 values, Well 2” value (L929 cell line; 1μM) was 1.2316, the “OD490 values, Well 3” value (L929 cell line; 1μM) was 1.2376 and the “OD490 values, Mean” value (L929 cell line; 10μM) was 1.3760. The “OD490 values, Well 1” value (L929 cell line; 10μM) was 1.4568, the “OD490 values, Well 2” value (L929 cell line; 10μM) was 1.4534 and the “OD490 values, Well 3” value (L929 cell line; 10μM) was 1.2179. For the same compound, the “OD490 values, Mean” value (L929 cell line; 25μM) was 1.2499, the “OD490 values, Well 1” value (L929 cell line; 25μM) was 1.2312 and the “OD490 values, Well 2” value (L929 cell line; 25μM) was 1.2473. The “OD490 values, Well 3” value (L929 cell line; 25μM) was 1.2712, the “OD490 values, Mean” value (L929 cell line; 50μM) was 1.1939 and the “OD490 values, Well 1” value (L929 cell line; 50μM) was 1.2135. For the same compound, the “OD490 values, Well 2” value (L929 cell line; 50μM) was 1.2454, the “OD490 values, Well 3” value (L929 cell line; 50μM) was 1.1229 and the “OD490 values, Mean” value (L929 cell line; 100μM) was 1.1051. The “OD490 values, Well 1” value (L929 cell line; 100μM) was 1.0930, the “OD490 values, Well 2” value (L929 cell line; 100μM) was 1.2053 and the “OD490 values, Well 3” value (L929 cell line; 100μM) was 1.0171. For the same compound, the IC50 (L929 cell line; MTS assay, 24 h exposure, ordinary fibroblast, not cancer cells) was over 150 µM, the “OD490 value, Mean” value (Hela cell line; 0.5μM, first assay) was 2.7753 and the “OD490 value, Well 1” value (Hela cell line; 0.5μM, first assay) was 2.9485. The “OD490 value, Well 2” value (Hela cell line; 0.5μM, first assay) was 2.6032, the “OD490 value, Well 3” value (Hela cell line; 0.5μM, first assay) was 2.7743 and the “OD490 value, Mean” value (Hela cell line; 0.5μM, second assay) was 2.7117. For the same compound, the “OD490 value, Well 1” value (Hela cell line; 0.5μM, second assay) was 2.7664, the “OD490 value, Well 2” value (Hela cell line; 0.5μM, second assay) was 2.9230 and the “OD490 value, Well 3” value (Hela cell line; 0.5μM, second assay) was 2.4458. For the same compound, the “OD490 value, Mean” value (Hela cell line; 0.5μM, third assay) was 2.8303, the “OD490 value, Well 1” value (Hela cell line; 0.5μM, third assay) was 2.8863 and the “OD490 value, Well 2” value (Hela cell line; 0.5μM, third assay) was 2.8745. For the same compound, the “OD490 value, Well 3” value (Hela cell line; 0.5μM, third assay) was 2.7301, the “OD490 value, Mean” value (Hela cell line; 1μM, first assay) was 2.5355 and the “OD490 value, Well 1” value (Hela cell line; 1μM, first assay) was 2.6242. The “OD490 value, Well 2” value (Hela cell line; 1μM, first assay) was 2.5242, the “OD490 value, Well 3” value (Hela cell line; 1μM, first assay) was 2.4580 and the “OD490 value, Mean” value (Hela cell line; 1μM, second assay) was 2.6019. The “OD490 value, Well 1” value (Hela cell line; 1μM, second assay) was 2.7530, the “OD490 value, Well 2” value (Hela cell line; 1μM, second assay) was 2.3014 and the “OD490 value, Well 3” value (Hela cell line; 1μM, second assay) was 2.7514. The “OD490 value, Mean” value (Hela cell line; 1μM, third assay) was 2.6769, the “OD490 value, Well 1” value (Hela cell line; 1μM, third assay) was 2.6365 and the “OD490 value, Well 2” value (Hela cell line; 1μM, third assay) was 2.7412. For the same compound, the “OD490 value, Well 3” value (Hela cell line; 1μM, third assay) was 2.6531, the “OD490 value, Mean” value (Hela cell line; 10μM, first assay) was 2.6047 and the “OD490 value, Well 1” value (Hela cell line; 10μM, first assay) was 2.6883. For the same compound, the “OD490 value, Well 2” value (Hela cell line; 10μM, first assay) was 2.6311, the “OD490 value, Well 3” value (Hela cell line; 10μM, first assay) was 2.4948 and the “OD490 value, Mean” value (Hela cell line; 10μM, second assay) was 2.6182. For the same compound, the “OD490 value, Well 1” value (Hela cell line; 10μM, second assay) was 2.7032, the “OD490 value, Well 2” value (Hela cell line; 10μM, second assay) was 2.6012 and the “OD490 value, Well 3” value (Hela cell line; 10μM, second assay) was 2.5503. The “OD490 value, Mean” value (Hela cell line; 10μM, third assay) was 2.6419, the “OD490 value, Well 1” value (Hela cell line; 10μM, third assay) was 2.7745 and the “OD490 value, Well 2” value (Hela cell line; 10μM, third assay) was 2.6563. The “OD490 value, Well 3” value (Hela cell line; 10μM, third assay) was 2.4949, the “OD490 value, Mean” value (Hela cell line; 25μM, first assay) was 2.3973 and the “OD490 value, Well 1” value (Hela cell line; 25μM, first assay) was 2.3040. For the same compound, the “OD490 value, Well 2” value (Hela cell line; 25μM, first assay) was 2.5337, the “OD490 value, Well 3” value (Hela cell line; 25μM, first assay) was 2.3542 and the “OD490 value, Mean” value (Hela cell line; 25μM, second assay) was 2.3999. The “OD490 value, Well 1” value (Hela cell line; 25μM, second assay) was 2.5301, the “OD490 value, Well 2” value (Hela cell line; 25μM, second assay) was 2.4698 and the “OD490 value, Well 3” value (Hela cell line; 25μM, second assay) was 2.1998. For the same compound, the “OD490 value, Mean” value (Hela cell line; 25μM, third assay) was 2.4241, the “OD490 value, Well 1” value (Hela cell line; 25μM, third assay) was 2.5355 and the “OD490 value, Well 2” value (Hela cell line; 25μM, third assay) was 2.5124. The “OD490 value, Well 3” value (Hela cell line; 25μM, third assay) was 2.2245, the “OD490 value, Mean” value (Hela cell line; 50μM, first assay) was 2.2890 and the “OD490 value, Well 1” value (Hela cell line; 50μM, first assay) was 2.3872. For the same compound, the “OD490 value, Well 2” value (Hela cell line; 50μM, first assay) was 2.2920, the “OD490 value, Well 3” value (Hela cell line; 50μM, first assay) was 2.1878 and the “OD490 value, Mean” value (Hela cell line; 50μM, second assay) was 2.2189. The “OD490 value, Well 1” value (Hela cell line; 50μM, second assay) was 2.3332, the “OD490 value, Well 2” value (Hela cell line; 50μM, second assay) was 2.3089 and the “OD490 value, Well 3” value (Hela cell line; 50μM, second assay) was 2.0147. The “OD490 value, Mean” value (Hela cell line; 50μM, third assay) was 2.2950, the “OD490 value, Well 1” value (Hela cell line; 50μM, third assay) was 2.4301 and the “OD490 value, Well 2” value (Hela cell line; 50μM, third assay) was 2.3354. For the same compound, the “OD490 value, Well 3” value (Hela cell line; 50μM, third assay) was 2.1196, the “OD490 value, Mean” value (Hela cell line; 100μM, first assay) was 1.7776 and the “OD490 value, Well 1” value (Hela cell line; 100μM, first assay) was 1.7277. For the same compound, the “OD490 value, Well 2” value (Hela cell line; 100μM, first assay) was 1.8895, the “OD490 value, Well 3” value (Hela cell line; 100μM, first assay) was 1.7156 and the “OD490 value, Mean” value (Hela cell line; 100μM, second assay) was 1.7632. The “OD490 value, Well 1” value (Hela cell line; 100μM, second assay) was 1.6245, the “OD490 value, Well 2” value (Hela cell line; 100μM, second assay) was 1.8996 and the “OD490 value, Well 3” value (Hela cell line; 100μM, second assay) was 1.7654. The “OD490 value, Mean” value (Hela cell line; 100μM, third assay) was 1.7923, the “OD490 value, Well 1” value (Hela cell line; 100μM, third assay) was 1.6654 and the “OD490 value, Well 2” value (Hela cell line; 100μM, third assay) was 1.8247. For the same compound, the “OD490 value, Well 3” value (Hela cell line; 100μM, third assay) was 1.8869 and the IC50 (Hela cell line; MTS assay, 24 h exposure) was 115 µM.

Reference: article PMC8037182, “Solvothermal Synthesis of Multiple Dihydropyrimidinones at a Time as Inhibitors of Eg5” (Molecules, 2021)
